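Assay format: 96-well plates, 48-hour exposure. TGI is the concentration that stops growth completely.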

Some test systems named below: OVCAR-5 ovarian; RPMI-8226 leukemia; SK-MEL-28 melanoma; SF-268 CNS; UO-31 renal; UACC-62 melanoma; MCF7 breast; SK-MEL-5 melanoma; OVCAR-3 ovarian; MOLT-4 leukemia; HOP-62 NSCLC.
Common to all, as to test: NCI anticancer screen, dose series, 48 h

`O=C(O)Cn1c[n+](NC(=O)Cc2ccccc2)cn1`: the TGI with OVCAR-5 ovarian, in the experiment on RPMI-8226 leukemia, with SK-MEL-28 melanoma, with SF-268 CNS, in the experiment on UO-31 renal and in the experiment with UACC-62 melanoma was greater than 10 µM each time. For the same molecule, the TGI in the experiment on MCF7 breast, in the experiment on SK-MEL-5 melanoma, in the experiment with OVCAR-3 ovarian, with MOLT-4 leukemia and with HOP-62 NSCLC was greater than 10 µM in each case.
On to `CC(C)(C)[Si](C)(C)OC1CCOC1(O)c1ccccn1` (stereo unspecified), for which the TGI in the experiment with OVCAR-5 ovarian, with RPMI-8226 leukemia, with SK-MEL-28 melanoma, with SF-268 CNS, in the experiment on UO-31 renal and with UACC-62 melanoma was greater than 100 µM each time. In addition, the TGI in the experiment with MCF7 breast, in the experiment on SK-MEL-5 melanoma, in the experiment on OVCAR-3 ovarian, in the experiment on MOLT-4 leukemia and in the experiment with HOP-62 NSCLC was greater than 100 µM each time.
With `Clc1sc(Cl)c2c1[C@H](Br)C[C@@H]2Cl`, the TGI with OVCAR-5 ovarian was greater than 100 µM; with RPMI-8226 leukemia, greater than 100 µM; in the experiment on SK-MEL-28 melanoma, 71 µM; in the experiment on SF-268 CNS, 49.9 µM; in the experiment with UO-31 renal, 43.8 µM; in the experiment with UACC-62 melanoma it was 69.1 µM. The TGI in the experiment on MCF7 breast is 50.8 µM; in the experiment with SK-MEL-5 melanoma, greater than 100 µM; in the experiment on OVCAR-3 ovarian, 64.9 µM; in the experiment on MOLT-4 leukemia, 53.1 µM; in the experiment with HOP-62 NSCLC it was greater than 100 µM.
For the molecule `N#Cc1ccnc(C(=O)N2CCCC2C(=O)O)c1` (stereo unspecified), the TGI in the experiment with OVCAR-5 ovarian, in the experiment on RPMI-8226 leukemia, in the experiment on SK-MEL-28 melanoma, with SF-268 CNS, in the experiment with UO-31 renal and in the experiment with UACC-62 melanoma was greater than 100 µM each time. Also, the TGI with MCF7 breast, in the experiment with SK-MEL-5 melanoma, in the experiment on OVCAR-3 ovarian, in the experiment with MOLT-4 leukemia and in the experiment on HOP-62 NSCLC was greater than 100 µM in each case.
`CCOC(=O)OC1(c2ccccc2)CCN(C)CC1`: the TGI in the experiment on OVCAR-5 ovarian, in the experiment with RPMI-8226 leukemia, in the experiment with SK-MEL-28 melanoma, with SF-268 CNS, in the experiment on UO-31 renal and in the experiment on UACC-62 melanoma was greater than 100 µM throughout. Further, the TGI with MCF7 breast, with SK-MEL-5 melanoma, in the experiment on OVCAR-3 ovarian, in the experiment on MOLT-4 leukemia and in the experiment with HOP-62 NSCLC was greater than 100 µM in each case.
As to `COc1cc2c3cc1Oc1cc(ccc1O)C[C@@H]1c4c(cc(OC)c(O)c4Oc4ccc(cc4)C[C@@H]3[N+](C)(C)CC2)CC[N+]1(C)C`, the TGI in the experiment on OVCAR-5 ovarian, with RPMI-8226 leukemia, in the experiment with SK-MEL-28 melanoma, in the experiment with SF-268 CNS, in the experiment with UO-31 renal and in the experiment on UACC-62 melanoma was greater than 100 µM each time. The TGI in the experiment on MCF7 breast, in the experiment on SK-MEL-5 melanoma, in the experiment on OVCAR-3 ovarian, with MOLT-4 leukemia and in the experiment on HOP-62 NSCLC was greater than 100 µM each time.
As for `O=C(O)CCSc1ncnc2nc[nH]c12`, the TGI in the experiment with OVCAR-5 ovarian, in the experiment with RPMI-8226 leukemia, in the experiment with SK-MEL-28 melanoma, with SF-268 CNS, with UO-31 renal and with UACC-62 melanoma was greater than 100 µM each time. Also, the TGI in the experiment with MCF7 breast, in the experiment on SK-MEL-5 melanoma, in the experiment on OVCAR-3 ovarian, in the experiment on MOLT-4 leukemia and in the experiment on HOP-62 NSCLC was greater than 100 µM each time.
With `O/N=C/[C@H]1COC2(CCCCC2)O1`, the TGI in the experiment with OVCAR-5 ovarian, in the experiment with RPMI-8226 leukemia, in the experiment with SK-MEL-28 melanoma, in the experiment on SF-268 CNS, with UO-31 renal and in the experiment on UACC-62 melanoma was greater than 100 µM throughout. Further, the TGI in the experiment with MCF7 breast, in the experiment on SK-MEL-5 melanoma, in the experiment on OVCAR-3 ovarian, in the experiment on MOLT-4 leukemia and with HOP-62 NSCLC was greater than 100 µM each time.
Consider `COC(=O)Cc1c2n(c3ccccc13)C(=O)N1c3ccccc3C(CC(=O)OC)C21` (stereo unspecified), for which the TGI in the experiment with OVCAR-5 ovarian, in the experiment on RPMI-8226 leukemia, in the experiment with SK-MEL-28 melanoma, in the experiment on SF-268 CNS, with UO-31 renal and in the experiment on UACC-62 melanoma was greater than 100 µM in each case. The TGI with MCF7 breast is greater than 100 µM; in the experiment on SK-MEL-5 melanoma, greater than 100 µM; in the experiment with OVCAR-3 ovarian, greater than 100 µM; in the experiment on MOLT-4 leukemia it was greater than 100 µM; in the experiment with HOP-62 NSCLC, 38.5 µM.
Consider `Cn1c2ccccc2c2c3c(=O)[nH][nH]c(=O)c3c3c4ccccc4n(C)c3c21`, for which the TGI in the experiment with OVCAR-5 ovarian, in the experiment on RPMI-8226 leukemia, in the experiment on SK-MEL-28 melanoma, in the experiment with SF-268 CNS, with UO-31 renal and in the experiment with UACC-62 melanoma was greater than 100 µM in each case. Besides, the TGI with MCF7 breast, in the experiment with SK-MEL-5 melanoma, in the experiment with OVCAR-3 ovarian, with MOLT-4 leukemia and in the experiment on HOP-62 NSCLC was greater than 100 µM each time.
In the case of `COc1ccc2c(c1)CCC(CN1CCN(CCOC(c3ccccc3)c3ccccc3)CC1)C2O` (stereo unspecified), the TGI amounted to 30.5 µM in the experiment with OVCAR-5 ovarian; 35.3 µM in the experiment on RPMI-8226 leukemia; 31.9 µM in the experiment on SK-MEL-28 melanoma; 31.5 µM in the experiment on SF-268 CNS; 30 µM in the experiment on UO-31 renal; 26.7 µM in the experiment with UACC-62 melanoma. Further, the TGI in the experiment with MCF7 breast stood at 37.5 µM; with SK-MEL-5 melanoma it was 21.9 µM; with OVCAR-3 ovarian it was 31.8 µM; with MOLT-4 leukemia, 35.7 µM; in the experiment with HOP-62 NSCLC it was 38.3 µM.
Consider `CO[C@H](C)[C@](O)(C(=O)OCC1=CCN2CC[C@@H](O)[C@H]12)C(C)C`, for which the TGI in the experiment with OVCAR-5 ovarian, in the experiment on RPMI-8226 leukemia, in the experiment with SK-MEL-28 melanoma, in the experiment on SF-268 CNS, with UO-31 renal and in the experiment on UACC-62 melanoma was greater than 100 µM each time. Further, the TGI in the experiment with MCF7 breast, in the experiment on SK-MEL-5 melanoma, in the experiment with OVCAR-3 ovarian, with MOLT-4 leukemia and with HOP-62 NSCLC was greater than 100 µM in each case.
Consider `O=C1CCCC2=C1CC1=C(CCCC1=O)N2c1ccc(-c2ccccc2)cc1`, for which the TGI in the experiment with OVCAR-5 ovarian, with RPMI-8226 leukemia, in the experiment on SK-MEL-28 melanoma, in the experiment with SF-268 CNS, with UO-31 renal and with UACC-62 melanoma was greater than 100 µM throughout. Besides, the TGI in the experiment with MCF7 breast, in the experiment on SK-MEL-5 melanoma, in the experiment on OVCAR-3 ovarian, with MOLT-4 leukemia and with HOP-62 NSCLC was greater than 100 µM each time.
Regarding `Nn1nnc2ccccc21`, the TGI with OVCAR-5 ovarian, in the experiment with RPMI-8226 leukemia, with SK-MEL-28 melanoma, in the experiment with SF-268 CNS, in the experiment with UO-31 renal and in the experiment on UACC-62 melanoma was greater than 100 µM each time. For the same molecule, the TGI with MCF7 breast, in the experiment on SK-MEL-5 melanoma, in the experiment on OVCAR-3 ovarian, in the experiment on MOLT-4 leukemia and in the experiment with HOP-62 NSCLC was greater than 100 µM in each case.
For `C=C1C[C@@H]2CC[C@@]34CC5O[C@H]6C(O[C@H]7CC[C@H](CC(=O)O[C@@H]8[C@@H](C)[C@@H]9O[C@@H]%10C[C@]%11(C[C@@H]%12O[C@]%13(C[C@H](C)[C@@H]%14O[C@@H]%15CC(C(COC(C)=O)OC(C)=O)O[C@@H]%15C[C@@H]%14O%13)C[C@H](C)[C@@H]%12O%11)O[C@@H]%10C[C@@H]9O[C@H]8CC8O[C@@H](CC[C@@H]1O2)C[C@@H](C)C8(O)CO)O[C@@H]7[C@@H]6O3)[C@H]5O4` (stereo partly specified), the TGI was greater than 1 µM in the experiment on OVCAR-5 ovarian; greater than 1 µM in the experiment on RPMI-8226 leukemia; greater than 1 µM with SK-MEL-28 melanoma; greater than 0.955 µM with SF-268 CNS; greater than 1 µM in the experiment with UO-31 renal; greater than 1 µM in the experiment on UACC-62 melanoma. Also, the TGI with MCF7 breast, with SK-MEL-5 melanoma, with OVCAR-3 ovarian, in the experiment on MOLT-4 leukemia and in the experiment with HOP-62 NSCLC was greater than 1 µM each time.
For the molecule `C[N+]1(CCCCN2c3ccccc3Sc3cc(N=[N+]=[N-])ccc32)CCN(C(=O)CCNC(=O)Cc2ccc(C(=O)c3ccccc3)cc2)CC1`, the TGI with OVCAR-5 ovarian was 56.1 µM; in the experiment on RPMI-8226 leukemia, 61.4 µM; in the experiment with SK-MEL-28 melanoma, 46.4 µM; with SF-268 CNS, 71.5 µM; with UO-31 renal it was 39 µM; with UACC-62 melanoma, greater than 69.2 µM. Moreover, the TGI in the experiment with MCF7 breast was 68 µM; in the experiment with SK-MEL-5 melanoma, greater than 62.6 µM; in the experiment on OVCAR-3 ovarian it was 89.2 µM; in the experiment with MOLT-4 leukemia, greater than 76.8 µM; in the experiment on HOP-62 NSCLC it was 44.9 µM.

The values are drawn from PubChem BioAssay (NCI).
